Where two headings read alike, the source gives them in different places. Blank lines part the entries; values can stand above or below the molecule they belong to.
Experiments:
[1] = test system: Astroglial cells derived from the mouse forebrain; test: Synthesis-stimulating activity on NGF (NGF level in culture medium by enzyme immunoassay); type: cell-based; conditions: ratio to DMSO control = 1.0
Protocol: The activity of accelerating secretion of NGF was evaluated by the following method.
Each compound shown in Table 1 was dissolved in dimethylsulfoxide (DMSO) to adjust the concentration in the range of 2 mg/ml to 10 mg/ml.
Astroglial cells derived from the mouse forebrain (cells that synthesize and secrete NGF)
Astroglial cells obtained from the mouse forebrain were cultured into 8 x 10⁵ cells/ml in Dulbecco's modified Eagle's medium obtained from Gibco, glucose-rich, containing 20% fetal calf serum, 100 units/ml of penicillin and 100 µg/ml of streptomycin. A 0.1 ml/well aliquot was inoculated on a 96-well plate obtained from Falcon and having an area of 0.32 cm² per well and cultured at 37°C in an atmosphere of 5% CO₂. The culture medium was removed 72 hours later and instead, a 0.1 ml/well aliquot of fresh Dulbecco's modified Eagle's medium containing 0.5% bovine albumin powders obtained from Armour, 100 units/ml of penicillin and 100 µg/ml of streptomycin was supplemented to the system followed by culturing at 37°C in 5% CO₂. The above medium containing the compound each having various concentrations was exchanged 72 hours later. For the purpose of comparison, the medium which contains only DMSO was also prepared (control).
The synthesis-stimulating activity on NGF by the compound of the present invention is shown in terms of a ratio when the NGF level in the control containing only DMSO was made 1.0.

[2] = test system: both common carotid artery-occlusion model Mongolian gerbils; test: Test on delayed neuronal death induced by cerebral ischemia (3 min occlusion of both common carotid arteries, histology of hippocampus after 7 days); type: in vivo; conditions: for Incidence Frequency of Neuronal Damage -: score 0 (-), normal neurons; for Incidence Frequency of Neuronal Damage +: score 1 (+), a few neurons damaged; for Incidence Frequency of Neuronal Damage ++: score 2 (++), many neurons damaged; for Incidence Frequency of Neuronal Damage +++: score 3 (+++), majority of neurons damaged
Protocol: Neuronal damages induced by cerebral ischemia was evaluated in the both common carotid artery-occlusion model Mongolian gerbils. Male Monglian gerbils, supplied by Shin Nihon Dobutsu Co., Ltd., Saitama, Japan and weighing 60 to 90 g. The gerbils were anesthetized lightly with ether and placed in the supine position. After local infiltration of xylocaine, both common carotid arteries were exposed through a ventral midline incision. The arteries were then clamped with aneurysm clips for 3 minutes. Thereafter the clips were removed and the skin was sutured. Sham operated animals were treated in the same manner, except that clamping was not done. The animals were anesthetized with ether 7 days after the bilateral common carotid arteries had been occluded for 3 minutes, and the brains were perfused with a 10% buffered formalin solution given through the left cardiac ventricle. The hippocampal region was cut coronally into 3- to 4-mm thick slices, embedded in paraffin and processed using the step section technique. The preparations were stained with hematoxylin and eosin. Ischemic neuronal damage was graded on 4 levels from scores 0 to 3: score 0 (-), normal neurons; score 1 (+), a few neurons damaged (as few as one neuron damaged); score 2 (++), many neurons damaged; and score 3 (+++), majority of neurons damaged. Compounds to be tested were suspended in gum arabic or dissolved in physiological saline, which was intraperitoneally given at determined times in doses of 10 mg/kg to 100 mg/kg, before and after the induced ischemia.

[3] = test system: Cerebral cortical neuronal cells from an 18-day-old rat embryo; test: Test on neurotrophic activity (living cells counted by fluorescein diacetate fluorescence, with or without hypoxic load); type: cell-based
Protocol: The neurotrophic activity was determined by the following method. Each compound was dissolved in DMSO to adjust the concentration in the range of 2 mg/ml to 10 mg/ml. Cerebral cortical neuronal cells from an 18-day-old rat embryo […] After 24 hours of incubation, the culture medium was removed and a 0.5 ml/well aliquot of a serum-free fresh DF medium containing the respective compounds having various concentrations, 5 µg/ml of transferrin, 5 µg/ml of insulin and 20 pmoles/ml of progesterone was supplemented to the system. For the purpose of comparison, the medium containing only DMSO was added was also prepared. At this stage, the two same plates were used. After 72 hours of incubation in various medium, hypoxia was loaded on one plate by reducing the concentration of oxygen to the minimum concentration of 1% using a N₂-O₂-CO₂ incubator (manufactured by Tabai, Model BNP-100) and culturing for 4 hours under the conditions. Another plate was cultured in an atmosphere of 5% CO₂ and 95% air, without hypoxic load. After the incubation was continued for further 48 hours, living cells were counted. The culture medium was removed and fluorescein diacetate (FDA) reagent was reacted. After washing with phosphate buffer, pH 7.4, the fluorescent intensity (E x 485/Em 530) was measured by CytoFlour^TM 2300, manufactured by Millipore.

[4] = dose 100 mg/kg, intraperitoneally, immediately after ischemia
[5] = no hypoxic load, ratio of fluorescent intensity to DMSO control = 1.0, read-out: Neurotrophic Activity No Hypoxic Load
[6] = 4 h, hypoxic load (1% oxygen, 4 hours), ratio of fluorescent intensity to DMSO control = 1.0, read-out: Neurotrophic Activity Hypoxic Load
[7] = dose 100 mg/kg, intraperitoneally, before 30 mins
[8] = dose 10, intraperitoneally, 30 mins after ischemia
[9] = dose 10, intraperitoneally, 1 hour after ischemia
[10] = dose 10, intraperitoneally, immediately after ischemia

SMILES: c1ccc(-c2cc(-c3ccncc3)cc(-c3ccccn3)n2)nc1 [Compound 30, 4'-(4-Pyridyl)-2,2':6',2''-terpyridine]
fold induction at 2 µg/mL ([1]; Mus musculus, 24 h, 2 µg/ml, 24 hours, read-out: Synthesis-Stimulating Activity on NGF): 1 | fold induction at 10 µg/mL ([1]; Mus musculus, 24 h): 1.2 | fold induction at 50 µg/mL ([1]; Mus musculus, 24 h, 50 µg/ml, 24 hours, read-out: Synthesis-Stimulating Activity on NGF): 1.2 | Incidence Frequency of Neuronal Damage - [2, 4]: 100% | Incidence Frequency of Neuronal Damage + [2, 4]: 0% | Incidence Frequency of Neuronal Damage ++ [2, 4]: 0% | Incidence Frequency of Neuronal Damage +++ [2, 4]: 0% | viability at 2 µg/mL [3, 5]: 420% | viability at 10 µg/mL [3, 5]: 120% | viability at 2 µg/mL [3, 6]: 530% | viability at 10 µg/mL [3, 6]: 130%

SMILES: CCCCCCCCCCCCCCCCC(CCCCCCCCCCCCCCCC)c1cc[n+](Cc2ccc(-c3cc(-c4ccccn4)nc(-c4ccccn4)c3)cc2)cc1.[Br-] [Compound 29, 4-(1-Hexadecylheptadecyl)-1-[4-(2,2':6',2''-terpyridin-4'-yl)phenylmethyl]pyridinium bromide]
fold induction at 3 µg/mL ([1]; Mus musculus, 24 h, 3 µg/ml): 1 | fold induction at 10 µg/mL ([1]; Mus musculus, 24 h): 2 | fold induction at 30 µg/mL ([1]; Mus musculus, 24 h): 7.6 | fold induction at 100 µg/mL ([1]; Mus musculus, 24 h, 100 µg/ml): 13 | Incidence Frequency of Neuronal Damage - [2, 7]: 42.9% | Incidence Frequency of Neuronal Damage + [2, 7]: 14.3% | Incidence Frequency of Neuronal Damage ++ [2, 7]: 14.3% | Incidence Frequency of Neuronal Damage +++ [2, 7]: 28.6% | viability at 2 µg/mL [3, 5]: 610% | viability at 10 µg/mL [3, 5]: 570% | viability at 2 µg/mL [3, 6]: 500% | viability at 10 µg/mL [3, 6]: 300%

SMILES: Cc1ccc(-c2cc(-c3ccccn3)nc(-c3ccccn3)c2)cc1 [Compound 5, 4'-(4-Methylphenyl)-2,2':6',2''-terpyridine]
fold induction at 20 µg/mL ([1]; Mus musculus, 24 h, 20 µg/ml): 10.1 | fold induction at 100 µg/mL ([1]; Mus musculus, 24 h, 100 µg/ml): 9.8 | Incidence Frequency of Neuronal Damage - [2, 4]: 25% | Incidence Frequency of Neuronal Damage + [2, 4]: 50% | Incidence Frequency of Neuronal Damage ++ [2, 4]: 0% | Incidence Frequency of Neuronal Damage +++ [2, 4]: 25%

Synthesis-Stimulating Activity on NGF ([1]; 100 µg/ml, 24 hours): 5.0
SMILES: Cc1ccc(-c2cc(-c3ccccn3)nc(-c3ccccn3)c2)cc1.Cl.Cl.Cl [Compound 6, 4'-(4-Methylphenyl)-2,2':6',2''-terpyridin trihydrochloride]
fold induction at 10 µg/mL ([1]; Mus musculus, 24 h): 2 | fold induction at 30 µg/mL ([1]; Mus musculus, 24 h): 3.3 | damages of the hippocampal CAl neurons ([2]; intraperitoneally given 30 minutes after or an hour after the ischemia had been induced): prevented damages of the hippocampal CAl neurons | Incidence Frequency of Neuronal Damage - [2, 8]: 25% | Incidence Frequency of Neuronal Damage - [2, 9]: 0% | Incidence Frequency of Neuronal Damage - [2, 10]: 0% | Incidence Frequency of Neuronal Damage + [2, 8]: 37.5% | Incidence Frequency of Neuronal Damage + [2, 9]: 50% | Incidence Frequency of Neuronal Damage + [2, 10]: 75% | Incidence Frequency of Neuronal Damage ++ [2, 8]: 12.5% | Incidence Frequency of Neuronal Damage ++ [2, 9]: 25% | Incidence Frequency of Neuronal Damage ++ [2, 10]: 0% | Incidence Frequency of Neuronal Damage +++ [2, 8]: 25% | Incidence Frequency of Neuronal Damage +++ [2, 9]: 25% | Incidence Frequency of Neuronal Damage +++ [2, 10]: 25%

Reference: patent EP0677293A1, “PHARMACEUTICAL USE OF TERPYRIDINE DERIVATIVE” (priority 1992, dated 1994)
